In patent US12180187B2, “1-phenyl-5-azinylpyrazolyl-3-oxyalkyl acids and their use for controlling unwanted plant growth” (BAYER AKTIENGESELLSCHAFT, priority 2019, dated 2024):

Key:
ABUTH [1] = experiment: Post-emergence action against ABUTH, 1.28 kg/ha; type: in vivo, Abutilon theophrasti; conditions: dosage 1280 g/ha, visual rating about 3 weeks after treatment vs untreated controls (100% = plants died)
Outline: (§1)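 Greenhouse pot test, sandy loam; weeds sprayed post-emergence at one-leaf stage (2–3 weeks after sowing) with WP or EC formulation plus 0.5% additive, 600 l/ha water. Visual rating after about 3 weeks versus untreated controls, 100% = plants dead, 0% = like control.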

KCHSC [2] = experiment: Pre-emergence action against KCHSC, 1280 g/ha; type: in vivo, Bassia scoparia; conditions: scored visually after about 3 weeks vs untreated controls (100% = plants have died)
Outline: (§2)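 Each pot was doubly sown in sandy loam and covered, then its soil surface was treated with compound suspension or emulsion containing 0.5% additive at 600 L/ha water. Plants grew in a greenhouse; effect was rated visually as percentages versus controls after about 3 weeks.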

LOLRI [3] = experiment: Pre-emergence action against LOLRI, 1280 g/ha; type: in vivo, Lolium rigidum; conditions: visual scoring after about 3 weeks vs untreated controls, 100% = plants have died, 0% = like control plants
Outline: as §2

POLCO = experiment: Pre-emergence action at 320 g/ha against POLCO; type: in vivo, Fallopia convolvulus (Polygonum convolvulus); conditions: visual scoring after about 3 weeks vs untreated controls
Outline: (§3)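 Application: aqueous WP or EC with 0.5% additive on soil covering seeds, 600 l/ha. Read-out: visual percent damage after ~3 weeks in greenhouse, untreated pots as reference.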

SETVI [4] = experiment: Post-emergence action against SETVI, 1.28 kg/ha; type: in vivo, Setaria viridis; conditions: dosage 1280 g/ha, visual rating about 3 weeks after treatment vs untreated controls
Outline: as §1

ALOMY [5] = experiment: Pre-emergence action against ALOMY, 1280 g/ha; type: in vivo, Alopecurus myosuroides; conditions: visual scoring after about 3 weeks vs untreated controls, 100% = plants have died, 0% = like control plants
Outline: as §2

POAAN [6] = experiment: Pre-emergence action against POAAN, 1280 g/ha; type: in vivo, Poa annua; conditions: visual scoring after about 3 weeks vs untreated controls, 100% = plants have died, 0% = like control plants
Outline: as §2

STEME = experiment: Pre-emergence action against STEME, 1280 g/ha; type: in vivo, Stellaria media; conditions: scored visually after about 3 weeks vs untreated controls (100% = plants have died)
Outline: as §2

DIGSA [7] = experiment: Pre-emergence action against DIGSA, 1280 g/ha; type: in vivo, Digitaria sanguinalis; conditions: visual scoring after about 3 weeks vs untreated controls, 100% = plants have died, 0% = like control plants
Outline: as §2

MATIN [8] = experiment: Pre-emergence action at 320 g/ha against MATIN; type: in vivo, Tripleurospermum inodorum (Matricaria inodora); conditions: visual scoring after about 3 weeks vs untreated controls
Outline: as §3

AMARE [9] = experiment: Pre-emergence action against AMARE, 1280 g/ha; type: in vivo, Amaranthus retroflexus; conditions: scored visually after about 3 weeks vs untreated controls (100% = plants have died)
Outline: as §2

ECHGC = experiment: Pre-emergence action at 320 g/ha against ECHGC; type: in vivo, Echinochloa crus-galli; conditions: visual scoring after about 3 weeks vs untreated controls
Text: (§4) b) Seeds of monocotyledonous and dicotyledonous weed plants and crop plants are placed in plastic or organic planting pots and covered with soil. The compounds of the invention, formulated in the form of wettable powders (WP) or as emulsion concentrates (EC), are then applied onto the surface of the covering soil as aqueous suspension or emulsion with addition of 0.5% additive at a water application rate of 600 l/ha (converted). After the treatment, the pots are placed in a greenhouse and kept under good growth conditions for the trial plants. After about 3 weeks, the effect of the preparations is scored visually in comparison with untreated controls as percentages. For example, 100% activity=the plants have died, 0% activity=like control plants. Tables 13 to 26 below show the effects of selected compounds of the general formula (I) on various harmful plants and at an application rate corresponding to 320 g/ha, which were obtained by the experimental procedure mentioned above.

SETVI [10] = experiment: Pre-emergence action against SETVI, 1280 g/ha; type: in vivo, Setaria viridis; conditions: visual scoring after about 3 weeks vs untreated controls, 100% = plants have died, 0% = like control plants
Outline: as §2

LOLRI [11] = experiment: Pre-emergence action at 320 g/ha against LOLRI; type: in vivo, Lolium rigidum; conditions: visual scoring after about 3 weeks vs untreated controls
Outline: as §3

DIGSA [12] = experiment: Post-emergence action against DIGSA, 1.28 kg/ha; type: in vivo, Digitaria sanguinalis; conditions: dosage 1280 g/ha, visual rating about 3 weeks after treatment vs untreated controls
Outline: as §1

AVEFA = experiment: Pre-emergence action at 320 g/ha against AVEFA; type: in vivo; conditions: visual scoring after about 3 weeks vs untreated controls
Text: as §4

MATIN [13] = experiment: Post-emergence action against MATIN, 1.28 kg/ha; type: in vivo, Tripleurospermum inodorum (Matricaria inodora); conditions: dosage 1280 g/ha, visual rating about 3 weeks after treatment vs untreated controls (100% = plants died)
Outline: as §1

SETVI [14] = experiment: Pre-emergence action at 320 g/ha against SETVI; type: in vivo, Setaria viridis; conditions: visual scoring after about 3 weeks vs untreated controls
Outline: as §3

KCHSC [15] = experiment: Post-emergence action against KCHSC, 1.28 kg/ha; type: in vivo, Bassia scoparia; conditions: dosage 1280 g/ha, visual rating about 3 weeks after treatment vs untreated controls (100% = plants died)
Outline: as §1

VERPE [16] = experiment: Post-emergence action against VERPE, 1.28 kg/ha; type: in vivo, Veronica persica; conditions: dosage 1280 g/ha, visual rating about 3 weeks after treatment vs untreated controls (100% = plants died)
Outline: as §1

AMARE [17] = experiment: Pre-emergence action at 320 g/ha against AMARE; type: in vivo, Amaranthus retroflexus; conditions: visual scoring after about 3 weeks vs untreated controls
Outline: as §3

ALOMY [18] = experiment: Post-emergence action against ALOMY, 1.28 kg/ha; type: in vivo, Alopecurus myosuroides; conditions: dosage 1280 g/ha, visual rating about 3 weeks after treatment vs untreated controls
Outline: as §1

VERPE [19] = experiment: Pre-emergence action at 320 g/ha against VERPE; type: in vivo, Veronica persica; conditions: visual scoring after about 3 weeks vs untreated controls
Outline: as §3

VERPE [20] = experiment: Pre-emergence action against VERPE, 1280 g/ha; type: in vivo, Veronica persica; conditions: scored visually after about 3 weeks vs untreated controls (100% = plants have died)
Outline: as §2

POAAN [21] = experiment: Post-emergence action against POAAN, 1.28 kg/ha; type: in vivo, Poa annua; conditions: dosage 1280 g/ha, visual rating about 3 weeks after treatment vs untreated controls
Outline: as §1

ECHCG [22] = experiment: Pre-emergence action against ECHCG, 1280 g/ha; type: in vivo, Echinochloa crus-galli; conditions: visual scoring after about 3 weeks vs untreated controls, 100% = plants have died, 0% = like control plants
Outline: as §2

AMARE [23] = experiment: Post-emergence action against AMARE, 1.28 kg/ha; type: in vivo, Amaranthus retroflexus; conditions: dosage 1280 g/ha, visual rating about 3 weeks after treatment vs untreated controls (100% = plants died)
Outline: as §1

ALOMY [24] = experiment: Pre-emergence action at 320 g/ha against ALOMY; type: in vivo, Alopecurus myosuroides; conditions: scored visually after about 3 weeks vs untreated controls (100% = plants have died)
Outline: as §3

VIOTR = experiment: Pre-emergence action at 320 g/ha against VIOTR; type: in vivo, Viola tricolor; conditions: dosage 320 g/ha
Outline: as §3

ECHCG [25] = experiment: Post-emergence action against ECHCG, 1.28 kg/ha; type: in vivo, Echinochloa crus-galli; conditions: dosage 1280 g/ha, visual rating about 3 weeks after treatment vs untreated controls
Outline: as §1

LOLRI [26] = experiment: Post-emergence action against LOLRI, 1.28 kg/ha; type: in vivo, Lolium rigidum; conditions: dosage 1280 g/ha, visual rating about 3 weeks after treatment vs untreated controls
Outline: as §1

MATIN [27] = experiment: Pre-emergence action against MATIN, 1280 g/ha; type: in vivo, Tripleurospermum inodorum (Matricaria inodora); conditions: scored visually after about 3 weeks vs untreated controls (100% = plants have died)
Outline: as §2

ABUTH [28] = experiment: Pre-emergence action against ABUTH, 1280 g/ha; type: in vivo, Abutilon theophrasti; conditions: scored visually after about 3 weeks vs untreated controls (100% = plants have died)
Text: 1. Pre-Emergence Herbicidal Effect and Crop Plant Compatibility a) Seeds of mono- and dicotyledonous weed plants are placed in plastic pots in sandy loam soil (doubly sown with one species each of mono- or dicotyledonous weed plants per pot) and covered with soil. The compounds of the invention, formulated in the form of wettable powders (WP) or as emulsion concentrates (EC), are then applied onto the surface of the covering soil as aqueous suspension or emulsion with addition of 0.5% additive at a water application rate equivalent to 600 litres per hectare. After the treatment, the pots are placed in a greenhouse and kept under good growth conditions for the trial plants. After about 3 weeks, the effect of the preparations is scored visually in comparison with untreated controls as percentages. For example, 100% activity=the plants have died, 0% activity=like control plants. 1. Pre-Emergence Effectiveness Tables 1 to 12 below show the effects of selected compounds of the general formula (I) according to Tables 1 and 2 on various harmful plants and at an application rate corresponding to 1280 g/ha, which were obtained by the experimental procedure mentioned above.

`O=C(O)CNC(=O)COc1nn(-c2ccccc2F)c(-c2ccc(F)nc2)c1Br` [Example X-021-a] was tested, and the “Post-emergence action against ABUTH” value (ABUTH [1]) was 100%, the “Pre-emergence action against KCHSC” value (KCHSC [2]) was 90% and the “Pre-emergence action against LOLRI” value (LOLRI [3]) was 100%. The “Pre-emergence action against POLCO in %” value (POLCO) was 100%, the “Post-emergence action against SETVI” value (SETVI [4]) was 100% and the “Pre-emergence action against ALOMY” value (ALOMY [5]) was 100%. For the same molecule, the “Pre-emergence action against POAAN” value (POAAN [6]) was 100%, the “Pre-emergence action against STEME” value (STEME) was 100% and the “Pre-emergence action against DIGSA” value (DIGSA [7]) was 100%. The “Pre-emergence action against MATIN in %” value (MATIN [8]) was 90%, the “Pre-emergence action against AMARE” value (AMARE [9]) was 100% and the “Pre-emergence action against ECHGC in %” value (ECHGC) was 100%. For the same molecule, the “Pre-emergence action against SETVI” value (SETVI [10]) was 100%, the “Pre-emergence action against LOLRI in %” value (LOLRI [11]) was 100% and the “Post-emergence action against DIGSA” value (DIGSA [12]) was 100%. For the same molecule, the “Pre-emergence action against AVEFA in %” value (AVEFA) was 100%, the “Post-emergence action against MATIN” value (MATIN [13]) was 90% and the “Pre-emergence action against SETVI in %” value (SETVI [14]) was 100%. For the same molecule, the “Post-emergence action against KCHSC” value (KCHSC [15]) was 100%, the “Post-emergence action against VERPE” value (VERPE [16]) was 100% and the “Pre-emergence action against AMARE in %” value (AMARE [17]) was 100%. The “Post-emergence action against ALOMY” value (ALOMY [18]) was 100%, the “Pre-emergence action against VERPE in %” value (VERPE [19]) was 100% and the “Pre-emergence action against VERPE” value (VERPE [20]) was 100%. The “Post-emergence action against POAAN” value (POAAN [21]) was 100%, the “Pre-emergence action against ECHCG” value (ECHCG [22]) was 100% and the “Post-emergence action against AMARE” value (AMARE [23]) was 100%. The “Pre-emergence action at 320 g/ha against ALOMY in %” value (ALOMY [24]) was 100%, the “Pre-emergence action against VIOTR in %” value (VIOTR) was 100% and the “Post-emergence action against ECHCG” value (ECHCG [25]) was 100%. For the same molecule, the “Post-emergence action against LOLRI” value (LOLRI [26]) was 100% and the “Pre-emergence action against MATIN” value (MATIN [27]) was 100%.
In the case of `CN(C)C(=O)COc1nn(-c2ccccc2F)c(-c2ccc(F)nc2)c1Br` [Example X-027], the “Pre-emergence action against ALOMY” value (ALOMY [5]) is reported as 100%, the “Pre-emergence action against POAAN” value (POAAN [6]) is reported as 100% and the “Pre-emergence action against STEME” value (STEME) is reported as 90%. For the same molecule, the “Pre-emergence action against DIGSA” value (DIGSA [7]) was 100%, the “Pre-emergence action against AMARE” value (AMARE [9]) was 100% and the “Pre-emergence action against SETVI” value (SETVI [10]) was 100%. For the same molecule, the “Post-emergence action against VERPE” value (VERPE [16]) was 100%, the “Pre-emergence action against VERPE” value (VERPE [20]) was 100% and the “Post-emergence action against POAAN” value (POAAN [21]) was 100%. The “Pre-emergence action against ECHCG” value (ECHCG [22]) was 100%, the “Pre-emergence action against ABUTH” value (ABUTH [28]) was 90% and the “Post-emergence action against ECHCG” value (ECHCG [25]) was 90%. For the same molecule, the “Pre-emergence action against MATIN” value (MATIN [27]) was 90%.
